Source: patent US12642793B2, “Compositions and methods to treat gastrointestinal diseases and disorders” (CEDARS-SINAI MEDICAL CENTER, priority 2019, dated 2026)

Legend:
[1] = tested on: anaerobes in patient duodenum aspirate; experiment: Culture of patient duodenum aspirate on blood agar; assay type: cell-based; conditions: for Blood agar (CFU/mL), Before Rifaximin: With DTT
Excerpt: (§1) Culture: blood agar and MacConkey aerobically, and blood agar anaerobically. […] Culture: MacConkey aerobically and blood agar anaerobically. […] Culture: MacConkey aerobically and blood agar anaerobically. […] Culture: MacConkey aerobically and blood agar anaerobically. […]

[2] = tested on: Gram-negative bacteria in patient duodenum aspirate; experiment: Culture of patient duodenum aspirate on MacConkey agar aerobically; assay type: cell-based; conditions: for MacConkey agar (CFU/mL), Before Rifaximin: With DTT; for MacConkey agar (CFU/mL), Rifaximin treatment: aerobically
Excerpt: as §1

[3] = Experiment 1, rifaximin dose 0.01 g/mL

Compound	Blood agar (CFU/mL), Before Rifaximin ([1]; Experiment 1)	Blood agar (CFU/mL), Before Rifaximin ([1]; Experiment 2)	Blood agar (CFU/mL), Before Rifaximin ([1]; Experiment 3)	Blood agar (CFU/mL), Before Rifaximin ([1]; Experiment 4)	MacConkey agar (CFU/mL), Before Rifaximin ([2]; Experiment 1)	MacConkey agar (CFU/mL), Before Rifaximin ([2]; Experiment 2)	MacConkey agar (CFU/mL), Before Rifaximin ([2]; Experiment 3)	MacConkey agar (CFU/mL), Before Rifaximin ([2]; Experiment 4)	Blood agar (CFU/mL), Rifaximin treatment [1, 3]	Blood agar (CFU/mL), Rifaximin treatment ([1]; Experiment 2, rifaximin dose 0.1 g/mL, anaerobically)	Blood agar (CFU/mL), Rifaximin treatment ([1]; Experiment 3, rifaximin dose 0.01 g/mL, anaerobically)	Blood agar (CFU/mL), Rifaximin treatment ([1]; Experiment 4, rifaximin dose 0.1 g/mL, anaerobically)	MacConkey agar (CFU/mL), Rifaximin treatment [2, 3]	MacConkey agar (CFU/mL), Rifaximin treatment ([2]; Experiment 2, rifaximin dose 0.1 g/mL)	MacConkey agar (CFU/mL), Rifaximin treatment ([2]; Experiment 3, rifaximin dose 0.01 g/mL)	MacConkey agar (CFU/mL), Rifaximin treatment ([2]; Experiment 4, rifaximin dose 0.1 g/mL)
O[C@H](CS)[C@H](O)CS (racemic) [DTT, dithiothreitol]	72000 CFU/mL	too high	60000 CFU/mL	1600000 CFU/mL	4800 CFU/mL	338000 CFU/mL	20 CFU/mL	0 CFU/mL	–	–	–	–	–	–	–	–
CO[C@H]1/C=C/O[C@@]2(C)Oc3c(C)c(O)c4c(O)c(c5c(nc6cc(C)ccn65)c4c3C2=O)NC(=O)/C(C)=C\C=C\[C@H](C)[C@H](O)[C@@H](C)[C@@H](O)[C@@H](C)[C@H](OC(C)=O)[C@@H]1C [Rifaximin, rifaximin]	–	–	–	–	–	–	–	–	6000 CFU/mL	too high	800 CFU/mL	16000 CFU/mL	4000 CFU/mL	343000 CFU/mL	40 CFU/mL	0 CFU/mL
